Among the data in BindingDB's records for doi:10.1016/j.bmc.2008.08.012 (Philipps University Marburg, 2008) are IC50 values, retold here.

The target of assay [1] is T1, Dimer of Gag-Pol polyprotein [501-599] (Human immunodeficiency virus 1, UniProt P03367).
T1 construct: 501-599
In words: Enzyme Inhibition Assay. The conditions noted are these: pH 5.5; 23 °C. Here is the method:
(§1) Enzyme assay was performed at room temperature on a microplate reader (Safire2TM) using black 96-well microtiter plates purchased from Nunc. Inhibitors and substrates were previously dissolved in 4% DMSO. The hydrolysis of the substrates was recorded as increase in fluorescence intensity. IC50 values were generated by nonlinear regression analysis from plots of vi/v0 versus inhibitor concentration, in which vi is the velocity in presence, and v0 the velocity in the absence of an inhibitor. The kinetic constants were determined by the method of Lineweaver and Burk, and Ki values were consecutively calculated from the following equation: Ki = IC50/[1 + (S/Km)]. The overall error of the assays is estimated to be +/-40%.

The target of another assay is Pepsin A (Sus scrofa, UniProt P00791). The assay is described as follows: Enzyme Inhibition Assay. The following applies: 25 °C. Here is the method:
as §1

Bounds are passed on as bounds.

Pepsin A, sequence (P00791 whole entry): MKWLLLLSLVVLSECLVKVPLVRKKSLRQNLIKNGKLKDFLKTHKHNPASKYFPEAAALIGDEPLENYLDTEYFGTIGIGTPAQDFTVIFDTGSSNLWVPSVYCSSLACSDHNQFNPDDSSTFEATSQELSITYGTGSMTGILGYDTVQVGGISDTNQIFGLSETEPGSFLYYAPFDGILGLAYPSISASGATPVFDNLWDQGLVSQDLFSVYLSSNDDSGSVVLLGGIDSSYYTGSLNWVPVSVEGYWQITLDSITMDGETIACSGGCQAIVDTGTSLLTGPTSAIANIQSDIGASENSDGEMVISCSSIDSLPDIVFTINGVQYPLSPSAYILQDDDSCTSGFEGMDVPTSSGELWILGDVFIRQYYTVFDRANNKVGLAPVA

Regarding `O=C(Cc1ccccc1)N(CCCNCCCN(Cc1ccccc1)C(=O)Cc1ccccc1)Cc1ccccc1` [carboxamide, 12c], the concentration for half-maximal inhibition (IC50) (in assay [1]; against Pepsin A) was over 250 µM each time.

As to `Nc1ccc(S(=O)(=O)N(CCCNCCCN(Cc2ccccc2)S(=O)(=O)c2ccc(N)cc2)Cc2ccccc2)cc1` [phenyl-substituted sulfonamides, 6f], the IC50 (as a rule, the concentration that gives 50% inhibition) in assay [1] was over 250 µM.

As to `O=S(=O)(c1ccccc1)N(CCCNCCCN(Cc1ccccc1)S(=O)(=O)c1ccccc1)Cc1ccccc1` [phenyl-substituted sulfonamides, 6c], the 50% inhibitory concentration (IC50) (in assay [1]; against Pepsin A) was over 250 µM each time.

With `O=C(Cc1ccccc1)N(CCNCCN(Cc1ccccc1)C(=O)Cc1ccccc1)Cc1ccccc1` [carboxamide, 12a], the half-maximal inhibitory concentration (IC50) (in assay [1]; at Pepsin A) was over 250 µM each time.

Consider `O=C(Cc1ccccc1)N(CCCNCCN(Cc1ccccc1)C(=O)Cc1ccccc1)Cc1ccccc1` [carboxamide, 12b], for which the IC50 (in assay [1]; against Pepsin A) was over 250 µM each time.

In the case of `Nc1ccc(S(=O)(=O)N(CCCNCCN(Cc2ccccc2)S(=O)(=O)c2ccc(N)cc2)Cc2ccccc2)cc1` [phenyl-substituted sulfonamides, 6e], the IC50 (in assay [1]; at Pepsin A) was over 250 µM throughout.
